The record followed here is paper PMC4666645 (PLoS Pathogens, 2015).

As a reminder, the EC50 is the midpoint of the concentration-response curve.

In one assay the target is Peq-26/27 receptor (Parascaris equorum, UniProt A0A0U2ES47+A0A0U2ES58). The assay can be described thus: cell-based. As for the experimental part:
In order to determine if ACR-26 and ACR-27 subunits from other parasitic nematodes species could also form functional receptors when expressed in Xenopus oocyte, Peq-acr-26 and Peq-acr-27 cRNAs from the distantly related P. equorum (Clade III) were co-injected in combination with Hco-ric-3.1, Hco-unc-74 and Hco-unc-50 cRNAs. Four days after injection, we observed robust expression of a functional AChR responding to 100 μM ACh (Fig 6B). […] This novel heteropentameric AChR was named Peq-26/27.
(§1) H. contortus and P. equorum acr-26 and acr-27 cDNAs were PCR-amplified using primers containing a restriction site in order to be sub-cloned into the expression vector pTB207 that is suitable for in vitro transcription. Primers are listed in S3 Table. The resulting plasmids were linearized with the NheI restriction enzyme (Fermantas) and used as templates for cRNA synthesis using the T7 mMessage mMachine kit (Ambion). Xenopus laevis ovaries were obtained from the University of Rennes, France (CRB Xenope) and defolliculated using 2 mg/ml collagenase type II (Gibco) in the incubation solution containing: 100 mM NaCl, 2 mM KCl, 1.8 mM CaCl2.2H2O, 1 mM MgCl2.6H2O, 5 mM HEPES, 2.5 mM C3H3NaO3, pH 7.5, supplemented with penicillin 100 U/mL and streptomycin 100 μg/mL). The oocytes were injected in the animal pole with a total volume of 36 nL of cRNA mix containing 50 ng/μL of each cRNA in RNase-free water using the Drummond nanoject II microinjector. Microinjected oocytes were kept at 20°C in incubation medium for 4 days to allow the receptors expression. Two-electrode voltage-clamp recordings were carried out using an Oocyte Clamp OC-725C amplifier (Warner instrument) in oocytes being voltage-clamped at -60mV. All agonist preparations were prepared with recording buffer (100 mM NaCl, 2.5 mM KCl, 1 mM CaCl2.2H2O, 5 mM HEPES, pH 7.3). Currents were recorded and analyzed using the pCLAMP 10.4 package (Molecular Devices).

Another assay deals with Hco-26/27 receptor (Haemonchus contortus, UniProt A9XX30+S4VAP0). The assay can be described thus: cell-based.
From the text: In order to investigate if the overlapping expression contributed to functional receptors, we co-expressed Hco-ACR-26 and Hco-ACR-27 in Xenopus laevis oocytes. We have previously reported that the functional expression of nematode muscle AChRs in Xenopus oocytes requires the addition of ancillary proteins. Therefore, cRNAs encoding the subunits Hco-ACR-26 and Hco-ACR-27, in combination with three ancillary proteins (Hco-ric-3.1, Hco-unc-74 and Hco-unc-50) were co-injected into Xenopus oocytes. […] Subsequently, different cRNA combinations were injected into Xenopus oocytes in order to determine the minimal subunit combination leading to the expression of a functional receptor and verify the ancillary factor requirement.
The subunit stoichiometry has been previously reported to impact the pharmacological properties of some nematode AChRs expressed in Xenopus oocytes.
as §1

Setting [1] is: 100 μM agonist, normalized to 100 μM ACh current, equal subunit ratio.
[2] abbreviates: read-out: Relative maximal current (Imax) normalized to 100 μM acetylcholine, cRNA ratio 1:1 26/27, 100 μM agonist.

SMILES strings stand for the structures. Structures can show the parent of a compound that is named as a salt. Where two headings read alike, the source gives them in different places.

Hco-26/27 receptor, sequence (A9XX30 entry or part of it): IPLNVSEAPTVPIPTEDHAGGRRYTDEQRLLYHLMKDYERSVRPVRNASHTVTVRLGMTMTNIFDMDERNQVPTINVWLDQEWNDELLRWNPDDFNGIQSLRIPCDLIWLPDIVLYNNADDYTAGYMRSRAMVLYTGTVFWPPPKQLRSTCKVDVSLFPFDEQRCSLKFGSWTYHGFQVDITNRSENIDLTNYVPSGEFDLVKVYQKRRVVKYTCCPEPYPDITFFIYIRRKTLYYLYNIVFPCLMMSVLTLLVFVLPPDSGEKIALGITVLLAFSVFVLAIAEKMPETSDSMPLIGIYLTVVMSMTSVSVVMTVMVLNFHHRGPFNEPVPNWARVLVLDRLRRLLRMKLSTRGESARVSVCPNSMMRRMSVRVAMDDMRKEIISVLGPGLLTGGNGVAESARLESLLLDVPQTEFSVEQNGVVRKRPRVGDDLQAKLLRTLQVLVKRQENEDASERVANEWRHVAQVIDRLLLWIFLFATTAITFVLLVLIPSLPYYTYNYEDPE
Hco-26/27 receptor, sequence (S4VAP0 entry or part of it): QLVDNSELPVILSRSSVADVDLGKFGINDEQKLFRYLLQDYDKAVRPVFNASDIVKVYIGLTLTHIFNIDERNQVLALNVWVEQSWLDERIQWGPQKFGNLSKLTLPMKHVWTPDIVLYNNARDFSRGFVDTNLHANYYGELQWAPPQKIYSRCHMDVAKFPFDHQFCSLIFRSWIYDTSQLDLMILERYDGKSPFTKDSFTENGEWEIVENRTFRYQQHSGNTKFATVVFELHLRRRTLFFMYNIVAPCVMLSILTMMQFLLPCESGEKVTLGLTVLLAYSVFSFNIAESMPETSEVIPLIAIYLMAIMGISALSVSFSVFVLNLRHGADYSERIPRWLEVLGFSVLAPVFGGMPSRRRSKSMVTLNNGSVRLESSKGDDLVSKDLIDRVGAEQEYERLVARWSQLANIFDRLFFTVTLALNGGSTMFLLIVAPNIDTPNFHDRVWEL
Peq-26/27 receptor, sequence (A0A0U2ES58 entry or part of it): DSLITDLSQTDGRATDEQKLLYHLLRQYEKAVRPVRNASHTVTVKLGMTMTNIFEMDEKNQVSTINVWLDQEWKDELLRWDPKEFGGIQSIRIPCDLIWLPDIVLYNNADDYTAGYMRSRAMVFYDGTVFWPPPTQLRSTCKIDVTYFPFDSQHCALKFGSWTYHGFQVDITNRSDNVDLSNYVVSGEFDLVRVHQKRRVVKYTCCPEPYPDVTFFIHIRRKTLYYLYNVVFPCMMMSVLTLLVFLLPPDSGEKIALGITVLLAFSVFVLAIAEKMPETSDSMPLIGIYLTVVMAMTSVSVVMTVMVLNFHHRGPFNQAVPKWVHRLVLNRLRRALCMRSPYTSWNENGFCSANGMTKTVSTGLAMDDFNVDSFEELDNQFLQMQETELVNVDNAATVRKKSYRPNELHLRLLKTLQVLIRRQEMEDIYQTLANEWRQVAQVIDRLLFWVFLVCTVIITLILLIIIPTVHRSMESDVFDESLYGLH
Peq-26/27 receptor, sequence (A0A0U2ES47 entry or part of it): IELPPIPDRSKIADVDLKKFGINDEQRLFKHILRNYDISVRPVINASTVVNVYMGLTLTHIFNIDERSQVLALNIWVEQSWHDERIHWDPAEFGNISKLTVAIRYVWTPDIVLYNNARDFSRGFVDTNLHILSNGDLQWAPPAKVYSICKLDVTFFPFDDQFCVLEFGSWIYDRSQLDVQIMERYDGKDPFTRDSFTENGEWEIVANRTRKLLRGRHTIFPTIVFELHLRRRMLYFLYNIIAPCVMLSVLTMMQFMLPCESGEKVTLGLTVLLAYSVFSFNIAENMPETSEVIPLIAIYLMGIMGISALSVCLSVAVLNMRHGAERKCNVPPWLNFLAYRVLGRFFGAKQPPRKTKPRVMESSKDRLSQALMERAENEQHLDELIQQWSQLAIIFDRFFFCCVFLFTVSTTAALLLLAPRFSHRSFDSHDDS

For the compound `CC(=O)OCC[N+](C)(C)C` [ACh, Acetylcholine chloride], the values for the EC50 at Peq-26/27 receptor and on Hco-26/27 receptor were 34.9 ± 1.1 µM and 80.1 ± 1.1 µM, respectively. Also, the Emax at 100 µM at Hco-26/27 receptor (cRNA ratio 1:1 26/27, 100 μM agonist, read-out: Relative maximal current (Imax) normalized to 100 μM acetylcholine) was 100%; at Hco-26/27 receptor (cRNA ratio 1:5 26/27, 100 μM agonist, read-out: Relative maximal current (Imax) normalized to 100 μM acetylcholine), 100%; on Hco-26/27 receptor (cRNA ratio 5:1 26/27, 100 μM agonist, read-out: Relative maximal current (Imax) normalized to 100 μM acetylcholine), 100%.

Turning to `C[N+](C)(CCOc1ccccc1)Cc1ccccc1` [Beph, bephenium], the “Current elicited, % of ACh response” value on Hco-26/27 receptor (setting [1]) is reported as “insensitive”. The Emax at 100 µM on Hco-26/27 receptor (setting [2]) came out at 3.21 ± 1.61%; on Hco-26/27 receptor (read-out: Relative maximal current (Imax) normalized to 100 μM acetylcholine, cRNA ratio 1:5 26/27, 100 μM agonist) it was 2.26 ± 2.26%.

As for `CN1CCC[C@H]1c1cccnc1` [Nic, (-)-nicotine hydrogen tartrate], the “Current elicited, % of ACh response” value on Peq-26/27 receptor (100 μM agonist, normalized to 100 μM ACh current) is reported as “insensitive”; on Hco-26/27 receptor, “insensitive”.

For the compound `CN1CCCN=C1/C=C/c1cccc(O)c1` [Oxa, oxantel], the “Current elicited, % of ACh response” value on Hco-26/27 receptor (setting [1]) is on record as “insensitive”. Besides, the Emax at 100 µM at Hco-26/27 receptor (setting [2]) is 0.95 ± 0.95%.
